# From US20250312352A1, “GLP-1R MODULATING COMPOUNDS” (Gilead Sciences, Inc., priority 2021, published 2025)
# Target: T1, GLP-1R (Homo sapiens, UniProt P43220)
# T1 construct: host or cells: CHO cells
# Assay: GLP-1R activation cAMP assay (Assay 1 or Assay 2)
# Format: cell-based
# Conditions: cAMP increase in CHO cells stably expressing GLP-1R; compounds run on one of the two cAMP assays
# Procedure, shortened: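 EC50 values come from a sigmoidal fit of HTRF-detected cAMP rise versus log agonist concentration. GLP-1R-expressing CHO cells, equilibrated 1 h at 37 °C in HBSS with HEPES and BSA, received a 10-point compound dose series for 30 min before detection.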
# T1 sequence (P43220 24-463): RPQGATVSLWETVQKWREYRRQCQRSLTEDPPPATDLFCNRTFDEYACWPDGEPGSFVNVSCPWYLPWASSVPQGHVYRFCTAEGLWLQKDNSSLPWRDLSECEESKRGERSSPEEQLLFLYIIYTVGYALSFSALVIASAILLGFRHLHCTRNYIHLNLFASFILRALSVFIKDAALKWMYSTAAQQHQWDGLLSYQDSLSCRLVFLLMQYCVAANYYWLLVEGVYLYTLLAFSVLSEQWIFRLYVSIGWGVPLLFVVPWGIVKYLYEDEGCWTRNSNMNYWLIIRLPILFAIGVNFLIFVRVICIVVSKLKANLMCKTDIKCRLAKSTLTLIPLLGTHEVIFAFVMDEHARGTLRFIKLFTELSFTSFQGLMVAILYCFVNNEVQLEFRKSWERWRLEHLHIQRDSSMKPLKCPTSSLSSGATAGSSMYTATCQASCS
row,EC50 [nM],SMILES
1,17.9,"COCCn1c(Cc2cc(F)c(-c3cccc(OCc4ccc(-c5cnn(C6CCNCC6)c5)nc4)n3)cc2F)nc2ccc(C(=O)O)cc21 [Example 229, 2-(2,5-difluoro-4-(6-((6-(1-(piperidin-4-yl)-1H-pyrazol-4-yl)pyridin-3-yl)methoxy)pyridin-2-yl)benzyl)-1-(2-methoxyethyl)-1H-benzo[d]imidazole-6-carboxylic acid]"
2,8.29,"N#Cc1nc(COc2cccc(-c3cc(F)c(Cc4nc5ccc(C(=O)O)cc5n4C[C@@H]4CCO4)cc3F)n2)cs1 [Example 170, (S)-2-(4-(6-((2-cyanothiazol-4-yl)methoxy)pyridin-2-yl)-2,5-difluorobenzyl)-1-(oxetan-2-ylmethyl)-1H-benzo[d]imidazole-6-carboxylic acid]"
3,0.44,"O=C(O)c1ccc2nc(Cc3cc(F)c(-c4cccc(OCc5ncc(C#Cc6cnn(C7CC7)c6)s5)n4)cc3F)n(C[C@@H]3CCO3)c2c1 [Example 118, (S)-2-(4-(6-((5-((1-cyclopropyl-1H-pyrazol-4-yl)ethynyl)thiazol-2-yl)methoxy)pyridin-2-yl)-2,5-difluorobenzyl)-1-(oxetan-2-ylmethyl)-1H-benzo[d]imidazole-6-carboxylic acid]"
4,5.53,"Cn1cc(-n2ccc(COc3cccc(-c4cc(F)c(Cc5nc6ccc(C(=O)O)cc6n5C[C@@H]5CCO5)cc4F)n3)n2)cn1 [Example 82, (S)-2-(2,5-difluoro-4-(6-((1′-methyl-1′H-[1,4′-bipyrazol]-3-yl)methoxy)pyridin-2-yl)benzyl)-1-(oxetan-2-ylmethyl)-1H-benzo[d]imidazole-6-carboxylic acid]"
5,0.087,"COc1nnc(COc2cccc(-c3cc(Cl)c(Cc4nc5ccc(C(=O)O)cc5n4[C@@H]4COCC4(C)C)cc3F)n2)s1 [Example 434, (S)-2-(2-chloro-5-fluoro-4-(6-((5-methoxy-1,3,4-thiadiazol-2-yl)methoxy)pyridin-2-yl)benzyl)-1-(4,4-dimethyltetrahydrofuran-3-yl)-1H-benzo[d]imidazole-6-carboxylic acid]"
6,3.38,"NC(=O)c1csc(COc2cccc(-c3cc(F)c(Cc4nc5ccc(C(=O)O)cc5n4C[C@@H]4CCO4)cc3F)n2)c1 [Example 131, (S)-2-(4-(6-((4-carbamoylthiophen-2-yl)methoxy)pyridin-2-yl)-2,5-difluorobenzyl)-1-(oxetan-2-ylmethyl)-1H-benzo[d]imidazole-6-carboxylic acid]"
7,0.25,"O=C(O)c1ccc2nc(Cc3cc(F)c(-c4cccc(OCc5cc6n(n5)CC(F)(F)C6)n4)cc3F)n(C[C@@H]3CCO3)c2c1 [Example 74, (S)-2-(4-(6-((5,5-difluoro-5,6-dihydro-4H-pyrrolo[1,2-b]pyrazol-2-yl)methoxy)pyridin-2-yl)-2,5-difluorobenzyl)-1-(oxetan-2-ylmethyl)-1H-benzo[d]imidazole-6-carboxylic acid]"
8,0.363,"O=C(O)c1ccc2nc(Cc3cc(F)c(-c4cccc(OCc5ccc(C#Cc6cncnc6)cc5)n4)cc3F)n(C[C@@H]3CCO3)c2c1 [Example 405, (S)-2-(2,5-difluoro-4-(6-((4-(pyrimidin-5-ylethynyl)benzyl)oxy)pyridin-2-yl)benzyl)-1-(oxetan-2-ylmethyl)-1H-benzo[d]imidazole-6-carboxylic acid]"
9,0.126,"O=C(O)c1ccc2nc(Cc3cc(F)c(-c4cccc(OCc5ncc(C#Cc6cnsc6)cc5F)n4)cc3F)n(C[C@@H]3CCO3)c2c1 [Example 285, (S)-2-(2,5-difluoro-4-(6-((3-fluoro-5-(isothiazol-4-ylethynyl)pyridin-2-yl)methoxy)pyridin-2-yl)benzyl)-1-(oxetan-2-ylmethyl)-1H-benzo[d]imidazole-6-carboxylic acid]"
10,0.08,"Cc1nc(COc2cccc(-c3cc(F)c(Cc4nc5ccc(C(=O)O)cc5n4C[C@@H]4CCO4)cc3F)n2)sc1Br [Example 27, (S)-2-(4-(6-((5-bromo-4-methylthiazol-2-yl)methoxy)pyridin-2-yl)-2,5-difluorobenzyl)-1-(oxetan-2-ylmethyl)-1H-benzo[d]imidazole-6-carboxylic acid]"
11,0.131,"CCOc1nnc(COc2cccc(-c3cc(F)c(Cc4nc5ccc(C(=O)O)cc5n4[C@@H]4COCC4(C)C)c(F)c3F)n2)s1 [Example 263, (S)-1-(4,4-dimethyltetrahydrofuran-3-yl)-2-(4-(6-((5-ethoxy-1,3,4-thiadiazol-2-yl)methoxy)pyridin-2-yl)-2,3,6-trifluorobenzyl)-1H-benzo[d]imidazole-6-carboxylic acid]"
12,0.196,"Cn1cc(C#Cc2cnc(COc3cccc(-c4cc(F)c(Cc5nc6c(F)cc(C(=O)O)cc6n5CC5(CF)CC5)cc4F)n3)c(F)c2)cn1 [Example 274, 2-(2,5-difluoro-4-(6-((3-fluoro-5-((1-methyl-1H-pyrazol-4-yl)ethynyl)pyridin-2-yl)methoxy)pyridin-2-yl)benzyl)-4-fluoro-1-((1-(fluoromethyl)cyclopropyl)methyl)-1H-benzo[d]imidazole-6-carboxylic acid]"
13,1.54,"O=C(O)c1ccc2nc(Cc3cc(F)c(-c4cccc(OCc5cc(C(F)(F)F)on5)n4)cc3F)n(C[C@@H]3CCO3)c2c1 [Example 24, (S)-2-(2,5-difluoro-4-(6-((5-(trifluoromethyl)isoxazol-3-yl)methoxy)pyridin-2-yl)benzyl)-1-(oxetan-2-ylmethyl)-1H-benzo[d]imidazole-6-carboxylic acid]"
14,0.303,"CC1(C#Cc2cnc(COc3cccc(-c4cc(F)c(Cc5nc6c(F)cc(C(=O)O)cc6n5C[C@@H]5CCO5)cc4F)n3)c(Cl)c2)CC1 [Example 379, (S)-2-(4-(6-((3-chloro-5-((1-methylcyclopropyl)ethynyl)pyridin-2-yl)methoxy)pyridin-2-yl)-2,5-difluorobenzyl)-4-fluoro-1-(oxetan-2-ylmethyl)-1H-benzo[d]imidazole-6-carboxylic acid]"
15,0.83,"Cn1cc(C#Cc2cnc(COc3cccc(-c4cc(F)c(Cc5nc6ccc(C(=O)O)cc6n5C[C@@H]5CCO5)cc4F)n3)cn2)cn1 [Example 155, (S)-2-(2,5-difluoro-4-(6-((5-((1-methyl-1H-pyrazol-4-yl)ethynyl)pyrazin-2-yl)methoxy)pyridin-2-yl)benzyl)-1-(oxetan-2-ylmethyl)-1H-benzo[d]imidazole-6-carboxylic acid]"
16,0.384,"CC1(C)COC[C@H]1n1c(Cc2cc(F)c(-c3ccnc(OCc4ccc(Cl)s4)n3)cc2F)nc2ccc(C(=O)O)cc21 [Example 418, (S)-2-(4-(2-((5-chlorothiophen-2-yl)methoxy)pyrimidin-4-yl)-2,5-difluorobenzyl)-1-(4,4-dimethyltetrahydrofuran-3-yl)-1H-benzo[d]imidazole-6-carboxylic acid]"
17,0.027,"CCOc1nnc(COc2nc(-c3cc(F)c(Cc4nc5ccc(C(=O)O)cc5n4[C@@H]4COCC4(C)C)cc3F)ccc2F)s1 [Example 424, (S)-1-(4,4-dimethyltetrahydrofuran-3-yl)-2-(4-(6-((5-ethoxy-1,3,4-thiadiazol-2-yl)methoxy)-5-fluoropyridin-2-yl)-2,5-difluorobenzyl)-1H-benzo[d]imidazole-6-carboxylic acid]"
18,0.197,"Cn1cncc1C#Cc1ccc(COc2cccc(-c3cc(F)c(Cc4nc5c(F)cc(C(=O)O)cc5n4C[C@@H]4CCO4)cc3F)n2)c(F)c1 [Example 395, (S)-2-(2,5-difluoro-4-(6-((2-fluoro-4-((1-methyl-1H-imidazol-5-yl)ethynyl)benzyl)oxy)pyridin-2-yl)benzyl)-4-fluoro-1-(oxetan-2-ylmethyl)-1H-benzo[d]imidazole-6-carboxylic acid]"
19,6.38,"O=C(O)c1ccc2nc(Cc3cc(F)c(-c4cccc(OCc5ccn(CC(F)F)n5)n4)cc3F)n(C[C@@H]3CCO3)c2c1 [Example 64, (S)-2-(4-(6-((1-(2,2-difluoroethyl)-1H-pyrazol-3-yl)methoxy)pyridin-2-yl)-2,5-difluorobenzyl)-1-(oxetan-2-ylmethyl)-1H-benzo[d]imidazole-6-carboxylic acid]"
20,34.6,"Cn1cnc(COc2cccc(-c3cc(F)c(Cc4nc5ccc(C(=O)O)cc5n4C[C@@H]4CCO4)cc3F)n2)c1 [Example 177, (S)-2-(2,5-difluoro-4-(6-((1-methyl-1H-imidazol-4-yl)methoxy)pyridin-2-yl)benzyl)-1-(oxetan-2-ylmethyl)-1H-benzo[d]imidazole-6-carboxylic acid]"
21,36.1,"COCCn1c(Cc2cc(F)c(-c3cccc(OCc4ccc(C(=O)NC5CC5)cc4)n3)cc2F)nc2ccc(C(=O)O)cc21 [Example 249, 2-[[4-[6-[[4-(cyclopropylcarbamoyl)phenyl]methoxy]-2-pyridyl]-2,5-difluoro-phenyl]methyl]-3-(2-methoxyethyl)benzimidazole-5-carboxylic acid]"
22,0.535,"CC(F)(F)c1cnc(COc2cccc(-c3cc(F)c(Cc4nc5ccc(C(=O)O)cc5n4[C@@H]4COCC4(C)C)cc3F)n2)s1 [Example 425, (S)-2-(4-(6-((5-(1,1-difluoroethyl)thiazol-2-yl)methoxy)pyridin-2-yl)-2,5-difluorobenzyl)-1-(4,4-dimethyltetrahydrofuran-3-yl)-1H-benzo[d]imidazole-6-carboxylic acid]"
23,9.4,"Cn1cc(Cl)c(COc2cccc(-c3cc(F)c(Cc4nc5ccc(C(=O)O)cc5n4C[C@@H]4CCO4)cc3F)n2)n1 [Example 78, (S)-2-(4-(6-((4-chloro-1-methyl-1H-pyrazol-3-yl)methoxy)pyridin-2-yl)-2,5-difluorobenzyl)-1-(oxetan-2-ylmethyl)-1H-benzo[d]imidazole-6-carboxylic acid]"
24,2.59,"O=C(O)c1cc(F)c2nc(Cc3ccc(-c4cccc(OCc5cc6n(n5)CCC6)n4)c(F)c3)n(C[C@@H]3CCO3)c2c1 [Example 69, (S)-2-(4-(6-((5,6-dihydro-4H-pyrrolo[1,2-b]pyrazol-2-yl)methoxy)pyridin-2-yl)-3-fluorobenzyl)-4-fluoro-1-(oxetan-2-ylmethyl)-1H-benzo[d]imidazole-6-carboxylic acid]"
